# According to patent US20140206635A1, “METAL-SALEN COMPLEX COMPOUND, LOCAL ANESTHETIC AND ANTINEOPLASTIC DRUG” (IHI CORPORATION, priority 2011, published 2014):
# Columns and labels:
# [1] = Magnetic guidance of i.v. drug to right kidney, SNR by MRI; format: in vivo; conditions: mouse, intravenous; about 0.3 T at right kidney; after 10 minutes; vs left kidney and control
# Source text: Next, an guidance example using a guidance system will be described. […] The metal plate 236, especially an iron plate, is placed between the pair of magnets 230 and 232 so that a magnetic field of locally uniform and strong strength can be created. An electrical magnet can be used instead of a magnet to modify the magnetic force generated in this guidance system. The magnetism-generating means can be moved to a target position of the individual on a table to allow the pair of magnetism-generating means to move in the X, Y, and Z directions. The tissue of an individual can be placed in the region of the magnetic field to concentrate the drug in the tissue.
# More specifically, for example, the aforementioned Fe salen complex compound (drug concentration: 5 mg/mL (15 mM)) was injected intravenously into a mouse weighing about 30 g, a laparotomy was performed, and the mouse was placed on the iron plate 236 to locate its right kidney between the pair of magnets 230 and 232. […]
# Together with the left kidney and a kidney to which no field was applied (control), a magnetic field was applied to the right kidney of the mouse; and after 10 minutes the SNR was measured by MRI in T1 mode and T2 mode.
# [2] = Magnetic field-magnetization curve (MPMS7); format: physicochemical; conditions: magnetic field less than 10000 Oe (1 T); 37 degrees Celsius
# Source text: However, when the magnetic field exceeds 10000 Oe (1 T), the Co salen complex compound or the Mn salen complex compound has large magnetization and is most suited for magnetic induction drug delivery systems which use superconducting magnets.
# Clone M3 melanoma cells = test: Melanoma growth in mouse tail with local magnetic field; format: in vivo; conditions: for melanoma extension (area of melanoma pigmentation): 12 days after initial injection, saline group 100%; for histological examination, tumor expansion of melanoma: HE, anti-Ki-67, anti-Cyclyn D1 staining
# Procedure: Melanoma was established in mouse tails in vivo by local grafting of cultured melanoma cells (Clone M3 melanoma cells). Incidentally, FIG. 11(1) is a photograph showing the effects of a saline group (saline) into which the saline water was injected instead of the Fe salen complex compound; FIG. 11(2) is a photograph showing the effects of a group (SC) into which the Fe salen complex compound was injected without applying the magnetic field; and FIG. 11(3) is a photograph showing the effect of a group (SC+Mag) into which the Fe salen complex compound was injected while applying the magnetic field (n=7-10).
# The Fe salen complex compound (50 mg/kg) was administered intravenously via tail vein, followed by local application of a magnetic field by the use of a commercially available bar magnet (630 mT, a cylindrical neodymium magnet, 150 mm long and 20 mm in diameter). Application of a bar magnet was performed with 3 hour gentle contact with the site of melanoma immediately after injection of the Fe salen complex compound for 10-14 days.
# Application of the bar magnet was performed in such a way so that the magnetic field strength became maximal over the area of expected melanoma extension, which was approximately […] or shorter in a mouse tail for a growth period of 2 weeks. Twelve days after the initial injection of the Fe salen complex compound, the extension of melanoma was evaluated by assessing the area of melanoma pigmentation.
# A histological examination was performed as shown in FIG. 13 by means of Hematoxylin-Eosin staining and immuno-histochemical staining with an anti-Ki-67 antibody and an anti-Cyclyn D1 antibody which are both tumor proliferation markers in tissue sections.
# [3] = Temperature rise of ointments under AC magnetic field; format: physicochemical; conditions: AC field 258 A, 400 kHz, 51.74 mT; for temperature rise of ointment: 300 seconds
# Procedure: The aforementioned Fe salen complex compound was mixed with Vaseline, which is an adjuster for ointments, as a base at concentrations of 100 mmol and 200 mmol, respectively, to produce ointments. Then, the relationship between time and a temperature rise was measured by applying an AC magnetic field to these ointments under conditions of 258 A, 400 kHz, and 51.74 mT.
# Then, the compound expressed by the aforementioned Formula (I) was mixed with Kenalog, which is an ointment for stomatitis, as a base at concentrations of 100 mmol and 200 mmol, respectively, to produce ointments. Then, the relationship between time and a temperature rise was measured by applying an AC magnetic field to these ointments under conditions of 258 A, 400 kHz, and 51.74 mT.
# Next, as comparisons, the relationship between time and a temperature rise was measured by applying an AC magnetic field to each of 200 mg Vaseline and 200 mg Kenalog under conditions of 258 A, 400 kHz, and 51.74 mT.
# rat L6 cell = test: Rat L6 cell culture with bar magnet, cell count proximal vs distal to the magnet; format: cell-based; conditions: after 48 hours, bar magnet at flask
# Procedure: Culture medium was sprinkled with metal-salen complex compound powder, which is obtained with respect to each of the Fe salen complex compound, the Mn salen complex compound, the Cr salen complex compound, and the Co salen complex compound by the above-described method, in amounts allowing magnetic attraction to be visibly observed at a rat L6 cell confluence of 30%, and the state of the medium was photographed after 48 hours.
# Then, after 48 hours, the bottom face of the rectangular flask was photographed from one end to the other, and the cell count was calculated. Incidentally, Referring to FIG. 8, a “position proximal to the magnet” means within a projection area of the magnet end surface at the bottom of the rectangular flask, and a “position distal to the magnet” means a region on the side opposite the magnet end surface at the bottom of the rectangular flask.
# As a result, the magnetic drugs and the system equipped with magnetism-generating means according to the present invention can thus allow the drugs to become concentrated in target tissues and tissues of individuals.
# [4] = Temperature rise under near infrared radiation; format: physicochemical; conditions: 100 mmol in agarose; near infrared 600 nm to 1600 nm, 10 W
# Procedure: Next, a diatomic Fe salen complex compound (CAS#14167-12-5; produced by Tokyo Chemical Industry Co., Ltd.) was dissolved in agarose to produce a 100 mmol solution, which was put in a test tube, thereby preparing a sample. A sample of pure water put in a test tube was also prepared as a comparison. Then, these samples were respectively exposed to medical near infrared radiation (wavelengths: 600 nm to 1600 nm) by TOKYO IKEN CO., LTD. by using Super Lizer PX Type I (output: 10 W).
SMILES,"drug retention in right kidney (SNR by MRI, T1 and T2 mode) [1]",magnetization [2],"melanoma extension (area of melanoma pigmentation) (Clone M3 melanoma cells; SC group: 50 mg/kg i.v., no magnetic field)","melanoma extension (area of melanoma pigmentation) (Clone M3 melanoma cells; SC+Mag group: 50 mg/kg i.v. plus bar magnet 630 mT, 3 hour)","histological examination, tumor expansion of melanoma (Clone M3 melanoma cells; SC, no magnetic field)","histological examination, tumor expansion of melanoma (Clone M3 melanoma cells; with magnetic force field application)","temperature of ointment immediately after the measurement (0 second) ([3]; Kenalog base, 100 mmol)","temperature rise of ointment ([3]; Kenalog base, 200 mmol)","temperature of ointment immediately after the measurement (0 second) ([3]; Kenalog base, 200 mmol)","temperature of ointment immediately after the measurement (0 second) ([3]; Vaseline base, 100 mmol)","temperature rise of ointment ([3]; Vaseline base, 200 mmol)","temperature of ointment immediately after the measurement (0 second) ([3]; Vaseline base, 200 mmol)",number of cells at position proximal to the magnet vs position distal to the magnet (rat L6 cell),temperature of sample 300 seconds later [4],temperature of sample immediately after the measurement (0 second) [4]
[Fe+2].[O-]c1ccccc1C=NCCN=Cc1ccccc1[O-] [Fe salen complex compound],possible to make the drug stay in the right kidney,largest magnetization,63.68±16.3%,9.05±3.42%,tumor expansion of melanoma diminished,mostly disappeared,35 degrees Celsius,approximately 5 degrees Celsius,35 degrees Celsius,35 degrees Celsius,approximately 5 degrees Celsius,35 degrees Celsius,dramatically lower number of cells,–,–
Oc1ccccc1C=NCCN=Cc1ccccc1O.[Fe+2] [diatomic Fe salen complex compound],–,–,–,–,–,–,–,–,–,–,–,–,–,approximately 53 degrees Celsius,26 degrees Celsius
